{
  "source": "paper PMC4834588",
  "about": "(British Journal of Clinical Pharmacology, 2016)",
  "key": {"[1]": {"experiment": "physchem", "description": "The method for the generation of Log P values by high performance liquid chromatography (HPLC) was adapted from that described by Zhao et al. 22. Briefly, Log P correlates with the retention time of a compound by a solid phase C18 column. […] By using compounds with known Log P values, a standard curve can be determined and the Log P of a compound of interest obtained by interpolation. A Waters HPLC system, linked to an Agilent fluorescence detector, was used along with a Luna 5 μ C18 50 × 2.0 mm HPLC column preceded by a guard column (Phenomenex, Macclesfield, UK). […] The sample holder for the HPLC was set at 25 °C in order to prevent freezing of the DMSO during the run. The mobile phase consisted of deionized water and acetonitrile with a constant gradient of 40–60%, respectively.\nPrior to each run the column was equilibrated to the running conditions for 10 minutes, with the flow rate set to 0.5 ml min^−1. A 20‐μl aliquot of each sample was injected into the column and its retention time measured relative to that of the sodium nitrate peak. Peaks were analysed using Empower software (Waters, Wilmslow, UK)."}, "[2]": {"experiment": "Blood:plasma partitioning in whole blood from a healthy donor", "type": "in vitro ADME", "conditions": "human", "experimental": "All experiments were performed in triplicate. An aliquot of 180 μl whole blood from a healthy donor was added to 20 μL of each Act D solution (final concentrations 0.4, 2 and 10 μg ml^−1) in Eppendorf tubes, followed by gentle rotation for 1 min before transfer to an incubator (Infors HT Multitron Standard, Infors AG, Basel) at 37 °C for 1 h and 40 μl of plasma was transferred to a new Eppendorf and mixed with 40 μl of fresh blood.\nFor the blood samples, 40 μl of blood was transferred to a new Eppendorf and mixed with 40 μl blank plasma. All samples were then mixed with 160 μl of the extraction solution and frozen at −80 °C for 1 h. Samples were then centrifuged at 2000 g and 4 °C for 1 h and 100 μl of supernatant from each sample was transferred to HPLC vials and stored at −20 °C overnight. LC–MS analysis was performed as described above for the analysis of transporter kinetic samples. The blood‐to‐plasma ratio was calculated from the following equation (where Kb/p is the whole blood‐to‐plasma partition coefficient, Ke/p is the red blood cell‐to‐plasma partition and H is the haematocrit): (1) Blood‐to‐plasmaKb/p=Ke/p×H+1−H"}, "[3]": {"target": "ABCB1 (MDR1) (Homo sapiens, UniProt P08183)", "sequence (P08183 whole entry)": "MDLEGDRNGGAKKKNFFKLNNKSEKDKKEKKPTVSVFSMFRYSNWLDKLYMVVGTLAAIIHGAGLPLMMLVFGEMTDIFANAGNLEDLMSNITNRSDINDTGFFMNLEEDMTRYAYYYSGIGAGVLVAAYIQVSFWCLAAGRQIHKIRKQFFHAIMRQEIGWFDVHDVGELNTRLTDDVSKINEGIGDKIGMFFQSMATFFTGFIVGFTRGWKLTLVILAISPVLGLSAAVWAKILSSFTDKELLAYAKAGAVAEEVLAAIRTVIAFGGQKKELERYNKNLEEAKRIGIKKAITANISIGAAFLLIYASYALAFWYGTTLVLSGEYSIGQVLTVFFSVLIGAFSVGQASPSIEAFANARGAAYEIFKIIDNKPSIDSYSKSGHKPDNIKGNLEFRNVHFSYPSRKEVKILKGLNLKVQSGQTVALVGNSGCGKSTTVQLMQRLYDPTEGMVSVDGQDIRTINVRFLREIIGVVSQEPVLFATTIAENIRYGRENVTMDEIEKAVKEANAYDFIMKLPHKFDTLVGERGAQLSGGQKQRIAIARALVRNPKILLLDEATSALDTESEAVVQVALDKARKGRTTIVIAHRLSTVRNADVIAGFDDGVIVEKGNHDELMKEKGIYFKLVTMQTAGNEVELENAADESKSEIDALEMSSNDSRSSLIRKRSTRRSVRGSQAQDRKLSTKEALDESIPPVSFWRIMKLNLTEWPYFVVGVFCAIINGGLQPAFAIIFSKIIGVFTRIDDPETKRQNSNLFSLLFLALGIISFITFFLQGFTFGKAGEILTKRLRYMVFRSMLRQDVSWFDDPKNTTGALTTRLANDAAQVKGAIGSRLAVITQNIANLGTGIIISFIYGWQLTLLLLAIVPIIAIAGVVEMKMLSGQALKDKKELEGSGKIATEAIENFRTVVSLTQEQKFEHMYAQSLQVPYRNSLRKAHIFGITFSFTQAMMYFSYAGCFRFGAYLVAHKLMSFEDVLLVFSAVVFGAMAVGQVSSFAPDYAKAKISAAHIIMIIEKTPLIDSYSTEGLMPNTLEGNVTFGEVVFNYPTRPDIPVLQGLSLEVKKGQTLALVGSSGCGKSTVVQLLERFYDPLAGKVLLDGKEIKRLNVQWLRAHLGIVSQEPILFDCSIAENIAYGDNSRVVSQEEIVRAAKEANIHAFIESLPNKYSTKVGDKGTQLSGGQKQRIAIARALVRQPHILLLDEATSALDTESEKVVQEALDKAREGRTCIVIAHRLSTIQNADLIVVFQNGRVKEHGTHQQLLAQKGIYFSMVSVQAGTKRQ", "conditions": "basal to apical, 0.1-100 μM Act D, 1 h, MDCKII-MDR1 minus MDCKII-WT", "method": "Polarized Madin‐Darby canine kidney (MDCKII) cell line wild‐type and cells transfected with ABCB1 (MDR1) were obtained from Dr. A.H. Schinkel (Amsterdam, the Netherlands).\nFor drug transport experiments, 12‐mm Corning Transwell polycarbonate membrane cell culture inserts with 0.4‐μm pores were used (Sigma Aldrich, UK). Cells (passage 8–12) were seeded at 1.4 × 10^4 cells ml^−1 in growth medium and grown on filter for 5 days before the experiment was performed, with medium being changed every 24 hours. […] Growth medium was aspirated from both the apical and basal compartments, and the cells were washed twice with pre‐warmed phosphate‐buffered saline adjusted to pH 7.4. […] Lucifer yellow (60 μM) was added as a paracellular control to test for the formation of a fully confluent monolayer. A limit of 2% Lucifer yellow movement was set as the cutoff with the results for any wells exceeding that threshold being rejected.\nThe rate of efflux (μM min^−1/10^6 cells) due to MDR1 was determined by subtracting the rate of flux seen across the MDCKII‐WT cells from the flux across the MDCKII‐MDR1 cells."}, "[4]": {"experiment": "PBPK modelling and simulation (Simcyp version 14 release 1)", "design": "species or system human", "conditions": "PBPK compound file input; determined from chemical structure", "experimental": "Modelling and simulation were performed using Simcyp version 14 release 1 (Simcyp Ltd, a Certara company, Sheffield, UK). The compound file for Act D was compiled using data generated in the methods described above and with additional inputs from web databases and literature sources as shown in Table 2. The Simcyp software provides a framework for assessing the PK of a drug by defining certain characteristics within a compound file. Using this compound file, pharmacokinetic data can then be simulated in individuals of a virtual population of interest, allowing for the impact of inter‐individual differences to be assessed 17, 18.\nFor the simulation of clinical trial data, information was taken from previous work by Hill et al., who studied 117 patients administered Act D intravenously 8. The population was split into three age categories: 1–<6 (n = 67), 6–<10 (n = 11) and 10–20 years (n = 39). These age bins were further subdivided based on the dose of Act D received (Table 1). […]\nThe Simcyp simulations output the mean and the 5th and 95th percentile for the concentration−time profile as well as the calculated mean, median and geometric mean of the simulated population. […] In addition, the mean fold‐prediction of AUC against observed data was determined; a two‐fold under‐ or over‐prediction was considered a reasonable prediction and within 1.5‐fold a good prediction. […]"}, "[5]": {"conditions": "cited from earlier work"}, "[6]": {"design": "method as in PMID 15143082", "conditions": "cited from earlier work"}, "[7]": {"conditions": "cited from earlier work", "remark": "listed apart in the source"}, "[8]": {"design": "method as in http://www.drugbank.ca/drugs/DB00970", "conditions": "PBPK compound file input; ref http://www.drugbank.ca/drugs/DB00970; cited from earlier work"}},
  "note": "Read-outs that look alike come from different tables or passages of the source. Marks after values point to notes of the source that are not given here. Numbered stars: 1 amine (or outer) side, 2 acyl side, 3 side chain; on linkers, the order of the positions; unused ones are H or OH. Bridge positions count the residues as written; N and C are the ends. Square brackets hold non-standard residues; d marks the D form. Peptide text beside a SMILES is read from it. I, II: the chains in the order shown. Actinocin(9to1) = Cc1c2oc3c(C)ccc(C(=O)[*:1])c3nc-2c(C(=O)[*:2])c(N)c1=O; NMeV = CN[C@H](C(=O)O)C(C)C; Sar = CNCC(=O)O",
  "data": [
    {"smiles": "Cc1c2oc3c(C)ccc(C(=O)N[C@@H]4C(=O)N[C@H](C(C)C)C(=O)N5CCC[C@H]5C(=O)N(C)CC(=O)N(C)[C@@H](C(C)C)C(=O)O[C@@H]4C)c3nc-2c(C(=O)N[C@@H]2C(=O)N[C@H](C(C)C)C(=O)N3CCC[C@H]3C(=O)N(C)CC(=O)N(C)[C@@H](C(C)C)C(=O)O[C@@H]2C)c(N)c1=O", "note": "[Act D, Actinomycin D] (I: T[dV]P[Sar][NMeV] / II: T[dV]P[Sar][NMeV]; ester I:1-I:C, II:1-II:C; linker I:N-II:N via Actinocin(9to1))", "values": [
      {"measurement": "Experimental Log P", "setting": "[1]", "result": 4.77},
      {"measurement": "chromatographic logP", "setting": "[1]", "result": 4.47},
      {"measurement": "blood plasma ratio at 1 h", "setting": "[2]; 37 °C, 1 h, 95% confidence interval 0.03, read-out: Mean blood-to-plasma ratio", "result": 0.62},
      {"measurement": "blood plasma ratio at 1 h", "setting": "[2]; whole blood spiked with 0.2 to 10 μg ml^−1, read-out: Blood-to-plasma ratios (range observed)", "result": "0.59 to 0.65"},
      {"measurement": "Maximum rate of flux (J max)", "setting": "[3]", "result": 1142, "unit": "μM min^−1/10^6 cells"},
      {"measurement": "Michaelis–Menten constant (K m)", "setting": "[3]", "result": 20, "unit": "µM"},
      {"measurement": "Compound type", "setting": "[4]", "result": "Neutral"},
      {"measurement": "CL Renal", "setting": "[5]; PBPK input, CV of 60% used, ref Tattersall et al. 5", "result": "1.8 (l h^−1) ^*"},
      {"measurement": "Administered dose eliminated in the urine and faeces", "setting": "[5]; after nine days", "result": "approximately 35%"},
      {"measurement": "Likelihood of developing SOS", "setting": "[6]; patients over three years of age", "result": 4, "unit": "%"},
      {"measurement": "Chance of developing SOS", "setting": "[6]; patients under three years of age", "result": 15, "unit": "%"},
      {"measurement": "Mean observed AUC ± SD (AUC0-26h)", "setting": "[7]; age 1–<6 years, dose 0.60 mg m^−2 IV", "result": "82 ± 18", "unit": "ng·h/mL"},
      {"measurement": "Mean observed AUC ± SD (AUC0-26h)", "setting": "[7]; age 1–<6 years, dose 0.76 mg m^−2 IV", "result": "63 ± 8", "unit": "ng·h/mL"},
      {"measurement": "Mean observed AUC ± SD (AUC0-26h)", "setting": "[7]; age 1–<6 years, dose 1.01 mg m^−2 IV", "result": "71 ± 33", "unit": "ng·h/mL"},
      {"measurement": "Mean observed AUC ± SD (AUC0-26h)", "setting": "[7]; age 1–<6 years, dose 1.12 mg m^−2 IV", "result": "82 ± 16", "unit": "ng·h/mL"},
      {"measurement": "Mean observed AUC ± SD (AUC0-26h)", "setting": "[7]; age 1–<6 years, dose 1.48 mg m^−2 IV", "result": "111 ± 16", "unit": "ng·h/mL"},
      {"measurement": "Mean observed AUC ± SD (AUC0-26h)", "setting": "[7]; age 1–<6 years, dose 1.55 mg m^−2 IV", "result": "128 ± 51", "unit": "ng·h/mL"},
      {"measurement": "Mean observed AUC ± SD (AUC0-26h)", "setting": "[7]; age 6–<10 years, dose 0.77 mg m^−2 IV", "result": "80 ± 28", "unit": "ng·h/mL"},
      {"measurement": "Mean observed AUC ± SD (AUC0-26h)", "setting": "[7]; age 6–<10 years, dose 1.50 mg m^−2 IV", "result": "130 ± 12", "unit": "ng·h/mL"},
      {"measurement": "Mean observed AUC ± SD (AUC0-26h)", "setting": "[7]; age 10–20 years, dose 0.74 mg m^−2 IV", "result": "45 ± 8", "unit": "ng·h/mL"},
      {"measurement": "Mean observed AUC ± SD (AUC0-26h)", "setting": "[7]; age 10–20 years, dose 1.04 mg m^−2 IV", "result": "50 ± 12", "unit": "ng·h/mL"},
      {"measurement": "Mean observed AUC ± SD (AUC0-26h)", "setting": "[7]; age 10–20 years, dose 1.48 mg m^−2 IV", "result": "120 ± 44", "unit": "ng·h/mL"},
      {"measurement": "Mean AUC0-26h observed", "setting": "[7]; observed in patients (abstract)", "result": 93, "unit": "ng·h/mL"},
      {"measurement": "Fraction unbound", "setting": "[8]", "result": 0.95}
    ]},
    {"smiles": "C[C@@H]1C[C@H]2[C@@H]3CCC4=CC(=O)C=C[C@]4(C)[C@@]3(F)[C@@H](O)C[C@]2(C)[C@@]1(O)C(=O)CO", "note": "[Dexamethasone]", "values": [
      {"measurement": "chromatographic logP", "setting": "[1]; reversed-phase C18 HPLC column (Luna 5 µ C18 50 × 2.0 mm)", "result": 1.8}
    ]}
  ]
}
